Data reported in US20160215305A1, “Process of Fermenting A Lignocellulosic Biomass” (priority 2015, published 2016).

Legend:
S. cerevisiae [1] = assay: Fermentation of glucose solution with model inhibitors (cinnamaldehyde, vanillin), with or without cysteine or glycine detoxification; type: cell-based, Saccharomyces cerevisiae; conditions: for detoxification of cinnamaldehyde in glucose solution (fermentation): 2.5 mM cinnamaldehyde
Procedure: (§1) Batch fermentation was carried out in 125 mL serum bottles containing 50 mL broths (untreated or detoxified hydrolysates, untreated or detoxified cinnamaldehyde sugar solution) without any additional nutrient supplement. All the fermentation broths were adjusted to pH 6 with NaOH or H2SO4 and sterilized by passing 0.2 μm sterile filters. After inoculation, the serum bottle was sealed with rubber stopper and aluminum seal, and equipped with cannulas for CO2 release. All fermentation experiments were incubated at 30° C., spun at 150 rpm in a shaker (E24, New Brunswick Scientific). Aliquots of samples were withdrawn at 0, 1, 3, 6, 9, 12, 24, 36 and 48 hours for the time course analysis of both starting material and products. Fermentation was carried out in duplicate. The volumetric ethanol productivity and initial consumption rate of glucose (RG) and mannose (RM) was calculated based on the sugar consumed in the first 6 h of fermentation as described previously (Cao, D. X., Tu, M. B., Xie, R., Li, J., Wu, Y. N., Adhikari, S. 2014. Inhibitory Activity of Carbonyl Compounds on Alcoholic Fermentation by Saccharomyces cerevisiae. Journal of Agricultural and Food Chemistry, 62(4), 918-926).
Preparation of the lignocellulosic biomass and the treatment thereof was performed as described in Example 1. After detoxification, the detoxified hydrolysates were cooled to room temperature and then readjusted to pH 6.0 if needed. Similarly, for the model compound (cinnamaldehyde) detoxification, glucose (˜20 g/L) was mixed with 2.5 mM cinnamaldehyde, and then treated with 5 mM cysteine or glycine at 60° C. for 2 hours prior to fermentation.
To ascertain the potential reaction mechanism in amino acids detoxification of biomass hydrolysates, cinnamaldehyde was detoxified in glucose solution with cysteine and glycine.

S. cerevisiae [2] = assay: Batch fermentation of amino acid detoxified loblolly pine hydrolysates by Baker yeast; type: cell-based, Saccharomyces cerevisiae; conditions: for CEtOH, ethanol final concentration at 48 h / QEtOH, volumetric ethanol productivity in the first 6 h / RG, glucose consumption rate in the first 6 h / RM, mannose consumption rate in the first 6 h / YEtOH, ethanol yield from total glucose and mannose at 48 h: hydrolysates detoxified with amino acid 0.2% w/v
From the text: Loblolly pine (Pinus taeda) wood chips (1.0×1.0 cm, L×W) were collected by Forest Products Laboratory at Auburn University, located in Auburn, Ala. Dilute acid pretreatment was used to produce biomass hydrolysates in a 4.0 L Parr batch reactor (Parr Instrument Co., Moline, Ill.) as previously described (Lai, C. H., Tu, M. B., Li, M., Yu, S. Y. 2014. Remarkable solvent and extractable lignin effects on enzymatic digestibility of organosolv pretreated hardwood. Bioresource Technology, 156, 92-98). Briefly, wood chips (400 grams, dry weight) were soaked in 1% (w/w) sulfuric acid overnight (7:1 liquor/solid ratio) prior to the pretreatment, and then loaded into a reactor and treated at 170° C. for 60 minutes.
To achieve higher ethanol titer in fermentation, loblolly pine hydrolysates were concentrated to approximately one-third of its original volume using a rotary evaporator (IKA RV10 basic) at 40° C. and 60 rotations per minute (rpm). The hydrolysates were first adjusted to pH 4.0 before evaporation. After the concentration, the sugar contents of the hydrolysates were analyzed by HPLC.
[…] The detoxification experiments were performed in a 250 mL flask and placed in a temperature-controlled water batch.
Baker yeast (Fleischmann's), S. cerevisiae, was used for all the fermentation experiments in this study. The yeast was maintained on YDP medium containing (g/L): 20 glucose, 20 peptone, 10 yeast extract and 20 agar. Isolated colony was grown in YDP liquid medium overnight and harvested as fermentation inoculum. The yeast concentration was measured using an UV-vis spectrophotometer. Inoculum of 2.0 g/L was used for all fermentation experiments.
as §1
Ethanol, acetic acid, levulinic acid, formic acid, furfural and HMF were analyzed using an Aminex HPX-87H column (300×7.8 mm) with a refractive index detector. The elution conditions were column temperature of 45° C. and flow rate of 0.6 ml/min with 5.0 mM H2SO4 as the mobile phase in a 60 min isocratic run.

S. cerevisiae [3] = conditions: cited from earlier work
[4] = glucose ~20 g/L, 5 mM amino acid, 60° C., 2 hours
[5] = detoxification at 80° C., pH 6.0, 2 hours
[6] = pH 6.0, 60° C., 2 hours, listed as cysteine
[7] = pH 6.0, 60° C., 2 hours detoxification
[8] = detoxification at 50° C., pH 6.0, 2 hours
[9] = detoxification at pH 8.0, 60° C., 2 hours
[10] = pH 6.0, 60° C., 2 hours, listed as glycine

## O=CC=Cc1ccccc1 [cinnamaldehyde, reference compound]
S. cerevisiae [1]; 2.5 mM inhibitor in glucose solution, preliminary results
  inhibition of glucose fermentation: inhibited glucose fermentation significantly

## N[C@@H](CS)C(=O)O [Cysteine, cysteine]
S. cerevisiae [1]; [4]
  detoxification of cinnamaldehyde in glucose solution (fermentation): detoxified cinnamaldehyde very effectively
S. cerevisiae [2]; 60° C., 2 hours
  increase of volumetric ethanol productivity when pH was increased from 2 and 4 to 6: 92%
S. cerevisiae [2]; detoxification at 20, 40, 60 and 80° C. (approximately the same), pH 6.0
  final ethanol yield: ~0.42 g/g
S. cerevisiae [2]; detoxification at 20, 40, 60 and 80° C. (the same), pH 6.0
  final ethanol concentration: about 23.34 g/L
S. cerevisiae [2]; detoxification at 20° C., pH 6.0, 2 hours
  volumetric ethanol productivity: 0.83 g/L/h
S. cerevisiae [2]; detoxification at 40° C., pH 6.0, 2 hours
  volumetric ethanol productivity: 1.19 g/L/h
S. cerevisiae [2]; [5]
  volumetric ethanol productivity: 1.90 g/L/h
S. cerevisiae [2]; detoxification at pH 2.0, 4.0 and 6.0 (the same), 60° C.
  final ethanol concentration: 23.56 g/L
S. cerevisiae [2]; detoxification at pH 2 and 4, 60° C., 2 hours
  volumetric ethanol productivity: 0.92 g/L/h
S. cerevisiae [2]; pH 6.0, 60° C., 2 hours
  CEtOH, ethanol final concentration at 48 h: 23.14 ± 0.10 g/L
  QEtOH, volumetric ethanol productivity in the first 6 h: 1.77 ± 0.03 g/L/h
  RG, glucose consumption rate in the first 6 h: 2.10 ± 0.04 g/L/h
  RM, mannose consumption rate in the first 6 h: 2.16 ± 0.12 g/L/h
  YEtOH, ethanol yield from total glucose and mannose at 48 h: 0.42 ± 0.00 g/g
S. cerevisiae [2]; [6]
  CEtOH, ethanol final concentration at 48 h: 23.14 g/L
  QEtOH, volumetric ethanol productivity in the first 6 h: 1.77 g/L/h
  RG, glucose consumption rate in the first 6 h: 2.10 g/L/h
  RM, mannose consumption rate in the first 6 h: 2.16 g/L/h
  YEtOH, ethanol yield from total glucose and mannose at 48 h: 0.42 g/g
S. cerevisiae [2]; [7]
  ethanol productivity higher than positive sugar control (1.39 g/L/h): 27%
  improvement of mannose consumption rate compared to the positive sugar control: 43%
S. cerevisiae [2]; pH 6.0, 2 hours
  increase of volumetric ethanol productivity when temperature was changed from 20 to 40, 60, and 80° C.: 43-130%

## COc1cc(C=O)ccc1O [vanillin, reference compound]
S. cerevisiae [1]; 10 mM inhibitor in glucose solution, preliminary results
  inhibition of glucose fermentation (final ethanol concentration and yield): did not inhibit the final ethanol concentration and yield

## CC(=O)O [acetic acid]
S. cerevisiae [3]; 9 g/L at pH 5
  increase of final ethanol yield in S. cerevisiae fermentation: 16%

## NCC(=O)O [Glycine, glycine]
S. cerevisiae [1]; glucose solution, detoxified at 80° C.
  detoxification of cinnamaldehyde in glucose solution (fermentation): became fermentable
S. cerevisiae [1]; [4]
  detoxification of cinnamaldehyde in glucose solution (fermentation): did not detoxify the cinnamaldehyde
S. cerevisiae [2]; [8]
  ethanol productivity: 0.24 g/L/h
  final ethanol concentration: 1.87 g/L
S. cerevisiae [2]; detoxification at 70 and 80° C., pH 6.0, 2 hours
  final ethanol concentration: 23.00 g/L
S. cerevisiae [2]; detoxification at 70° C., pH 6.0, 2 hours
  ethanol productivity: 1.08 g/L/h
S. cerevisiae [2]; [5]
  volumetric ethanol productivity: 1.33 g/L/h
S. cerevisiae [2]; detoxification at pH 2.0 and 4.0, 60° C., 2 hours
  fermentability of detoxified biomass hydrolysates: not fermentable
S. cerevisiae [2]; detoxification at pH 2.0 and 4.0, 80° C.
  fermentability of detoxified hydrolysates: still not fermentable
S. cerevisiae [2]; [9]
  ethanol productivity: 0.87 g/L/h
  final ethanol concentration: 23.77 g/L
S. cerevisiae [2]; pH 6.0, 60° C., 2 hours
  CEtOH, ethanol final concentration at 48 h: 8.58 ± 0.27 g/L
  QEtOH, volumetric ethanol productivity in the first 6 h: 0.42 ± 0.01 g/L/h
  RG, glucose consumption rate in the first 6 h: 0.39 ± 0.01 g/L/h
  RM, mannose consumption rate in the first 6 h: 0.50 ± 0.05 g/L/h
  YEtOH, ethanol yield from total glucose and mannose at 48 h: 0.16 ± 0.01 g/g
S. cerevisiae [2]; [10]
  CEtOH, ethanol final concentration at 48 h: 8.58 g/L
  QEtOH, volumetric ethanol productivity in the first 6 h: 0.42 g/L/h
  YEtOH, ethanol yield from total glucose and mannose at 48 h: 0.16 g/g

## O=Cc1ccc(CO)o1 [HMF, hydroxymethylfurfural]
S. cerevisiae [3]; addition of 25 mM (3.16 g/L)
  effect on ethanol production by S. cerevisiae: did not affect the ethanol production
